Data reported in patent publication US4426519A, “7-(2-Amino-4-thiazolyl)-acetamido cephalosporanic acids” (Roussel Uclaf, priority 1979, dated 1984).
Values after ≈ are worked out from the molar mass of the structure shown. Where a name gives a salt, the structure may show the parent alone. Read-outs that look alike come from different tables or passages of the source.

What was measured:
Assay in all cases: MIC, dilution in liquid medium
Type in all cases: cell-based
[1] = tested on: Bacillus subtilis ATCC 6 633
Protocol: (§1) The method used was a dilution of a liquid medium where a series of tubes received the same quantity of a sterile nutritive media and increasing doses of the test compounds were placed therein. Then each tube was seeded with a bacterial strain and was incubated for 24 to 48 hours at 37° C. in an oven. The increasing inhibition was determined by transillulumination to determine the minimum inhibiting concentration (MIC in μg/ml) and the results are reported in the following Tables.

[2] = tested on: Escherichia Coli Resistant Tetracycline ATCC 11 303
Protocol: as §1

[3] = tested on: Escherichia Coli Exp. TO26 B6
Protocol: as §1

[4] = tested on: Escherichia Coli Resistant Gentamycine, Tobramycine R 55 123 D
Protocol: as §1

[5] = tested on: Streptococcus pyogenes A 561
Protocol: as §1

[6] = tested on: Klebsiella pneumoniae 2 536 Resistant Gentamycine
Protocol: as §1

[7] = tested on: Klebsiella pneumoniae Exp. 52 145
Protocol: as §1

[8] = tested on: Serratia Resistant Gentamycine 2 532
Protocol: as §1

[9] = tested on: Staphylococcus aureus exp.n°54 146
Protocol: as §1

[10] = tested on: Proteus mirabilis (indol-) A 235
Protocol: as §1

[11] = tested on: Staphylococcus aureus UC 1 128 Pen-resistant
Protocol: as §1

[12] = tested on: Salmonella typhimurium 420; details: Salmonella enterica
Protocol: as §1

[13] = tested on: Escherichia Coli sensitive Tetracycline ATCC 9 637
Protocol: as §1

[14] = tested on: Staphylococcus aureus ATCC 6 538 Pen Sensitive
Protocol: as §1

Enterobacter cloacae 681 = tested on: Enterobacter cloacae 681
Protocol: as §1

[15] = tested on: Pseudomonas 3935 Exp.Sensible Gentamycine
Protocol: as §1

Providencia Du 48 = tested on: Providencia Du 48
Protocol: as §1

Row | SMILES | MIC ([1]; ATCC6, 24 h, read-out: MIC) [µg/mL] | MIC ([1]; ATCC6, 48 h) [µg/mL] | MIC ([2]; ATCC11, 24 h) [µg/mL] | MIC ([2]; ATCC11, 48 h) [µg/mL] | MIC ([3]; 24 h) [µg/mL] | MIC ([3]; 48 h) [µg/mL] | MIC ([5]; A561, 24 h) [µg/mL] | MIC ([5]; A561, 48 h) [µg/mL] | MIC ([6]; 48 h) [µg/mL] | MIC ([7]; EXP.52145, 24 h, read-out: MIC) [µg/mL] | MIC ([8]; 24 h) [µg/mL] | MIC ([9]; 24 h) [µg/mL] | MIC ([9]; 48 h) [µg/mL] | MIC ([10]; 24 h) [µg/mL] | MIC ([10]; 48 h) [µg/mL] | MIC ([11]; UC1, 24 h) [µg/mL] | MIC ([11]; UC1, 48 h) [µg/mL] | MIC ([12]; 24 h) [µg/mL] | MIC ([13]; ATCC9, 48 h) [µg/mL] | MIC ([14]; ATCC6, 48 h) [µg/mL] | also measured
1 | Cc1nnc(SCC2=C(C(=O)O)N3C(=O)C(NC(=O)/C(=N\OCCSC(=N)N)c4csc(N)n4)C3SC2)s1 (stereo not drawn) [Example 6, Internal salt of syn isomer of 3-[(2-methyl-1,3,4-thiadiazol-5-yl)-thiomethyl]-7-[2-(2-amino-4-thiazolyl)-2-(2-aminoiminomethylthioethoxyimino)-acetamido]-ceph-3-eme-4-carboxylic acid] | 1 | 2 | 0.1 | 0.1 | 2 | 2 | 0.05 | 0.05 | 5 | 1 | 2 | 2 | 2 | 1 | 1 | 2 | 2 | 2 | 5 | 2 | MIC ([4]; 24 h, read-out: MIC): 1 µg/mL; MIC ([4]; 48 h, read-out: MIC): 1 µg/mL; MIC ([6]; 24 h, read-out: MIC): 5 µg/mL; MIC ([7]; EXP.52145, 48 h, read-out: MIC): 1 µg/mL; MIC ([8]; 48 h, read-out: MIC): 3 µg/mL; MIC ([12]; 48 h, read-out: MIC): 3 µg/mL; MIC ([13]; ATCC9, 24 h, read-out: MIC): 5 µg/mL; MIC ([14]; ATCC6, 24 h, read-out: MIC): 1 µg/mL; MIC (Enterobacter cloacae 681; Enterobacter cloacae, 681, 24 h, read-out: MIC): 10 µg/mL; MIC (Enterobacter cloacae 681; Enterobacter cloacae, 681, 48 h, read-out: MIC): 10 µg/mL
2 | Cn1nnnc1SCC1=C(C(=O)O)N2C(=O)C(NC(=O)/C(=N\OCCSC(=N)N)c3csc(N)n3)C2SC1 (stereo not drawn) [Example 4, Internal salt of the syn isomer of 3-[(1-methyl-1H-tetrazol-5-yl)-thiomethyl]-7-[2-(2-amino-4-thiazolyl)-2-(2-aminoiminomethylthioethoxyimino)-acetamido]-ceph-3-eme-4-carboxylic acid] | 0.5 | 2 | 0.2 | 0.2 | 1 | 1 | 0.05 | 0.05 | 5 |  | 1 | 2 | 2 | 0.2 | 0.5 | 2 | 2 | 2 | 2 | 2 | MIC ([4]; 24 h): 1 µg/mL; MIC ([4]; 48 h): 1 µg/mL; MIC ([6]; 24 h): 5 µg/mL; MIC ([7]; EXP.52145, 24 h): 1 µg/mL; MIC ([7]; EXP.52145, 48 h): 1 µg/mL; MIC ([15]; 24 h): 10 µg/mL; MIC ([15]; 48 h): 20 µg/mL; MIC ([8]; 48 h): 1 µg/mL; MIC (Providencia Du 48; DU48, 24 h): 5 µg/mL; MIC (Providencia Du 48; DU48, 48 h, read-out: MIC): 10 µg/mL; MIC ([12]; 48 h): 2 µg/mL; MIC ([13]; ATCC9, 24 h): 2 µg/mL; MIC ([14]; ATCC6, 24 h): 1 µg/mL; MIC (Enterobacter cloacae 681; Enterobacter cloacae, 681, 24 h): 3 µg/mL; MIC (Enterobacter cloacae 681; Enterobacter cloacae, 681, 48 h): 3 µg/mL
3 | CC(=O)OCC1=C(C(=O)O)N2C(=O)C(NC(=O)/C(=N\OCCSC#N)c3csc(N)n3)C2SC1 (stereo not drawn) [Example 7, Syn isomer of 3-acetoxymethyl-7-[2-(2-amino-4-thiazolyl)-2-(2-thiocyanatoethoxyimino)-acetamido]-ceph-3-eme-4-carboxylic acid] |  | 2 (≈ 3.8 µM) | 0.2 (≈ 0.38 µM) | 0.2 (≈ 0.38 µM) | 2 (≈ 3.8 µM) | 2 (≈ 3.8 µM) | 0.02 (≈ 0.038 µM) | 0.02 (≈ 0.038 µM) | 5 (≈ 9.5 µM) | 0.5 (≈ 0.95 µM) | 2 (≈ 3.8 µM) | 1 (≈ 1.9 µM) | 2 (≈ 3.8 µM) | 0.2 (≈ 0.38 µM) | 0.5 (≈ 0.95 µM) | 1 (≈ 1.9 µM) | 1 (≈ 1.9 µM) | 1 (≈ 1.9 µM) | 5 (≈ 9.5 µM) | 1 (≈ 1.9 µM) | MIC ([1]; ATCC6, 24 h): 1 µg/mL (≈ 1.9 µM); MIC ([4]; 24 h): 1 µg/mL (≈ 1.9 µM); MIC ([4]; 48 h): 1 µg/mL (≈ 1.9 µM); MIC ([6]; 24 h): 5 µg/mL (≈ 9.5 µM); MIC ([7]; EXP.52145, 48 h, read-out: MIC): 0.5 µg/mL (≈ 0.95 µM); MIC ([8]; 48 h): 3 µg/mL (≈ 5.7 µM); MIC (Providencia Du 48; DU48, 24 h, read-out: MIC): 10 µg/mL (≈ 19 µM); MIC (Providencia Du 48; DU48, 48 h, read-out: MIC): 10 µg/mL (≈ 19 µM); MIC ([12]; 48 h): 3 µg/mL (≈ 5.7 µM); MIC ([13]; ATCC9, 24 h): 5 µg/mL (≈ 9.5 µM); MIC ([14]; ATCC6, 24 h): 1 µg/mL (≈ 1.9 µM)
